Assay results published in patent US20090274739A1, “METHODS AND COMPOSITIONS FOR TREATING NEOINTIMAL HYPERPLASIA” (THE TRUSTEES OF COLUMBIA UNIVERSITY IN THE CITY OF NEW YORK, priority 2006, published 2009).
“Also recorded” adds a separate entry of the source.

Columns and labels:
[1] = test system: primary murine aortic vascular smooth muscle cells (VSMC); test: VSMC proliferation assay (Coulter counter / MTS-based); format: cell-based, mouse
Experimental: The methods used in the above experiments were as follows: Cell Culture and VSMC Proliferation Assays. Primary VSMC were isolated from aortic explants of wildtype, ob/ob, or db/db mice in the method of Roque et al. 30. VSMC were routinely cultured in Dulbecco's Modified Eagle's Medium (DMEM) containing either 4500 or 1250 mg/L glucose supplemented with 20% FBS at 37° C. in a 5% CO2 incubator. […] Cells were plated at 200,000 cells/ well of a 6 well dish and subsequently serum starved for 72 hr in DMEM media supplemented with 0.1 % FBS. Leptin dissolved in PBS was added directly to serum-free media at concentrations of 1, 10, or 100 ng/ml with […] LY294002 or U0126, and cells were grown for another 72 hr before harvesting. VSMC proliferation was measured by counting samples using a Coulter counter or using the Cell Titre 96 Aqueous One Solution Cell Proliferation Assay kit (Promega). Cell viability was assessed by Trypan Blue staining.
Proliferation of VSMCs: VSMC proliferation was measured by counting triplicate samples using a Coulter counter or using the CellTitier 96 Aqueous One Solution Cell Proliferation Assay (Promega, Madison, Wis.) kit per manufacturer's instructions. Cell viability was assessed via staining with Trypan Blue.
Murine VSMCs (2×10^4 cells/well) were incubated in a 6-well tissue culture plate for 72 hours in DMEM containing 0.1% FBS with or without insulin (10 or 100 nmol/L) and with 0, 1, 10, or 100 nmol/L rapamycin. Triplicate samples were counted using a Coulter counter and were normalized as percentage of the control group. Cell viability was checked via Trypan blue staining.
Murine VSMCs, seeded 2×10^4 cells/well in a 6-well plate, were starved for 72 hrs in DMEM with 0.1% FBS. Rapamycin, leptin, or insulin in different concentrations indicated in the figure were incubated with VSMCs in DMEM with 0.1% of FBS for 72 hrs. Triplicate samples were counted via a Coulter counter. Cell viability was checked via Trypan blue staining. […] In panel C, VSMCs were exposed to U0126, a specific MEK1/2 inhibitor, or LY294002, a specific PI3K inhibitor.
Primary VSMC were isolated from aortic explants of WT, ob/ob, or db/db mice (46). VSMC proliferation was determined using the Cell Titre Aqueous One Solution Proliferation Assay (Promega, Madison, Wis.). Migration to PDGF-BB was assessed in a modified Boyden chamber assay (47).

[2] = test system: murine femoral artery wire injury model (neointimal hyperplasia); test: Femoral artery wire injury model, morphometry of neointimal formation; format: in vivo, mouse; set-up: Lumen / Media / Intima / TVA (total vessel area): unit not given here
Source text: Animal Models and Drug Treatments. Wild type C57BL/6J background mice and mice deficient for leptin (C57BL/6J-Lepob; ob/ob) or the leptin receptor (C57BL/6J-m+/+Lepdb; db/db) were purchased from Charles Jackson Laboratories, Maine. Mice were obtained at ages 6-8 weeks old and average weight 15 g. Animals were fed standard rodent chow and tap water ad libitum. Procedures and animal care were approved by the Institutional Animal Care and Use Committee. Mice were subjected to femoral artery wire injury or sham injury described below 24 hr prior to starting pharmacological treatments. Sirolimus was administered by intraperitoneal injection once per day for 14 days as a suspension in 0.2% sodium carboxymethyl cellulose and 0.25% polysorbate-80; duplicate experiments were accomplished with 0.5% DMSO. Leptin or LY294002 was administered by intraperitoneal injection once per day for 14 days as a suspension in PBS. Plasma leptin levels were measured at baseline, 3, 6, and 10 hr after leptin injection using an ELISA assay (R&D). Leptin plus the vehicle used for both sirolimus and LY294002 was used as the control group for the treatment groups with sirolimus and LY294002. After the 2-week treatment, animals were processed for femoral artery morphometry.
Femoral Artery Injury Model. Endoluminal injury of bilateral femoral arteries was performed according to the method of Roque et al. with minor modification 27. […] Briefly, to denude and dilate femoral arteries, a 0.014″ angioplasty guidewire (Guidant) was passed endoluminally 3 times to the level of the aortic bifurcation. A sham protocol was performed where the arteries underwent dissection, clamping, and ligature without passage of the guidewire.
Computer-aided quantitative morphometry to measure luminal, medial, intimal, and vessel areas were performed as previously described 27 with minor modification. Mice were euthanized via CO2 asphyxiation prior to en bloc excision of hind limbs. Briefly, multiple segments of the common femoral artery at the level of injury were fixed in 10% Zinc Formalin, embedded in paraffin, sectioned at […] thickness, and subjected to Elastic-Van Gieson staining at a Columbia University Core Histology facility. In many cases, arteries underwent immunohistochemical staining for smooth muscle a-actin to highlight the media and neointima. Photomicrographs were captured on Adobe Photoshop 7.0 and transferred to Scion Image software for quantitative analysis. Specimens were analyzed by two independent operators blinded to the treatment groups. Microsoft Excel software was used to calculate the RNI values from I/M ratios in the absence and presence of pharmacological inhibitors, as detailed in the text.
Surgical Procedures: The mouse femoral artery wire injury model of was used with minor modifications (Roque M, et al., Arterioscler Thromb Vasc Biol, 2000, 20(2):335-42). Briefly, forty-two male mice were studied. Endoluminal injury to the common femoral artery was produced by either 3 passages of a 0.014″ diameter angioplasty guidewire (Guidant, Santa Clara, Calif.). […] While being viewed under a surgical microscope, a groin incision was made and the femoral artery was isolated and temporarily clamped distal to the inguinal ligament. An arteriotomy was performed and the guidewire was passed 3 times to the level of the aortic bifurcation. The artery was then ligated proximal to the arteriotomy. A sham protocol was carried out on the contralateral side where the arteries underwent dissection, temporary clamping, and ligature, without passage of the wire. The formation of the neointima was confirmed in this model as being comprised mainly of VSMCs through immunohistochemical staining of representative sections for α-smooth muscle actin via a commercial kit (Sigma).
For all treatment protocols, rapamycin was administered by intraperitoneal injection once per day, for 14 days, as a suspension in 0.2% sodium carboxymethyl cellulose and 0.25% polysorbate-80. […]

[3] = test system: Akt Thr-308 phosphorylation; test: Akt Thr-308 phosphorylation in descending aorta homogenates after i.p. treatment; format: in vivo; settings: Mus musculus, ip, 168 h; LY294002 1.2 mg/kg/day i.p., 7 days; read-out: inhibition of basal Thr-308 phosphorylation of Akt in descending aortas
Source text: Animals were processed for femoral artery morphometry after the 14-day drug treatments. For assessing LY294002 efficacy in vivo, descending aortas from mice treated with LY294002 or vehicle were harvested after 7 days of treatment; 3-4 aortas were pooled for immunoblot assessment of Akt phosphorylation.

[4] = test system: primary murine aortic vascular smooth muscle cells (VSMC); test: VSMC proliferation assay (Coulter counter / MTS-based); format: cell-based, mouse; settings: Example 5; 6 nM leptin; inhibitor 10 μM
[5] = test system: cultured porcine coronary arteries; settings: LY294002 10 μM; cited from earlier work
[6] = wire injury + leptin 0.4 mg/kg, LY 1.2 mg/kg daily i.p. 14 days, mean ± SD

Which “effect on leptin-induced proliferation of murine VSMC” value ([1]; Example 1, 100 ng/mL leptin, inhibitor 10 mM, 72 hr) does the source give for O=c1cc(N2CCOCC2)oc2c(-c3ccccc3)cccc12 [LY294002, 2-(4-morpholinyl)-8-phenyl-4H-1-benzopyran-4-one] here?
Its value is “did inhibit”.

And the “VSMC proliferation induced by leptin and insulin” value ([1]; LY294002 compared with 100 nmol/L rapamycin alone)?
Its value is “more pronounced effect”.

What about the “inhibition of leptin-induced neointimal formation” value ([2]; LY294002 1.2 mg/kg/d alone, leptin 0.4 mg/kg/d, 14 days) of the same molecule?
The value was “partially inhibited; also recorded: not the LY294002 alone group revealed a complete inhibition”.

And the “relative neointimal inhibition (RNI)” value ([2]; LY294002 1.2 mg/kg, leptin 0.4 mg/kg)?
The value was 0.70.

And the “I/M (intima:media ratio)” value [2, 6]?
The value was 0.574 ± 0.186.

And the Intima [2, 6]?
Its Intima is 0.010 ± 0.003.

What about the Lumen [2, 6] of the same molecule?
Its Lumen is 0.013 ± 0.002.

And the Media [2, 6]?
The Media was 0.020 ± 0.003.

And the “TVA (total vessel area)” value [2, 6]?
The value was 0.044 ± 0.006.

And the inhibition at 1.2 mg/kg/day [3]?
The inhibition at 1.2 mg/kg/day was over 80%.

And the “effect on leptin-induced VSMC proliferation” value [4]?
Its value is “inhibited”.

What about the “neointimal hyperplasia in cultured porcine coronary arteries” value [5] of the same molecule?
Its value is “prevents neointimal hyperplasia”.
